In the supplement of paper PMC13207355:

Columns and labels:
Details in all cases: exposure time: 72 h
E21 [1] = patient-derived glioblastoma stem cells of mesenchymal subtype; assay: surviving fraction (nuclei count normalised to DMSO); higher = more cells surviving (less toxic)
FT3469 [2] = normal neural stem cell line; assay: as above
E57 [3] = patient-derived glioblastoma stem cells of mesenchymal subtype; assay: as above
E34 [4] = patient-derived glioblastoma stem cells of proneural subtype; assay: as above
E28 [5] = patient-derived glioblastoma stem cells of classical subtype; assay: as above
E13 [6] = patient-derived glioblastoma stem cells of classical subtype; assay: as above
E31 [7] = patient-derived glioblastoma stem cells of proneural subtype; assay: as above
E21 [8] = assay: phenotypic distance (Euclidean, principal components) from DMSO controls (arbitrary units); higher = stronger morphological change
FT3469 [9] = assay: as above
E57 [10] = assay: as above
E34 [11] = assay: as above
E28 [12] = assay: as above
E13 [13] = assay: as above
E31 [14] = assay: as above
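For phenotypic distance (Euclidean, principal components) from DMSO controls in this document: cell Painting imaging in 384-well plates, CellProfiler features reduced to at least 20 principal components, Euclidean distance versus same-plate DMSO vehicle wells (0.1% v/v), median over six images per well.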
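For surviving fraction (nuclei count normalised to DMSO) in this document: nuclei counted by high-content imaging of Hoechst-stained cells in laminin-coated 384-well plates, relative to 0.1% DMSO vehicle wells, with staurosporine as cell-death control.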

COC(=O)Nc1nc2cc(C(=O)c3ccccc3)ccc2[nH]1 [Mebendazole]
Details | phenotypic distance | surviving fraction
E13 [6], 4.1 nM | – | 0.79
E13 [6], 12.3 nM | – | 0.88
E13 [6], 37 nM | – | 0.816
E13 [6], 111.1 nM | – | 0.465
E13 [6], 333.3 nM | – | 0.22
E13 [6], 1000 nM | – | 0.203
E13 [6], 3000 nM | – | 0.221
E13 [13], 4.1 nM | 1.43 | –
E13 [13], 12.3 nM | 1.24 | –
E13 [13], 37 nM | 2.04 | –
E13 [13], 111.1 nM | 4.4 | –
E13 [13], 333.3 nM | 7.15 | –
E13 [13], 1000 nM | 6.93 | –
E13 [13], 3000 nM | 7.2 | –
E21 [1], 4.1 nM | – | 0.964
E21 [1], 12.3 nM | – | 0.942
E21 [1], 37 nM | – | 0.868
E21 [1], 111.1 nM | – | 0.707
E21 [1], 333.3 nM | – | 0.138
E21 [1], 1000 nM | – | 0.144
E21 [1], 3000 nM | – | 0.187
E21 [8], 4.1 nM | 1.49 | –
E21 [8], 12.3 nM | 1.54 | –
E21 [8], 37 nM | 1.52 | –
E21 [8], 111.1 nM | 2.75 | –
E21 [8], 333.3 nM | 7.72 | –
E21 [8], 1000 nM | 7.67 | –
E21 [8], 3000 nM | 6.82 | –
E28 [5], 4.1 nM | – | 1.01
E28 [5], 12.3 nM | – | 0.992
E28 [5], 37 nM | – | 0.943
E28 [5], 111.1 nM | – | 0.731
E28 [5], 333.3 nM | – | 0.444
E28 [5], 1000 nM | – | 0.288
E28 [5], 3000 nM | – | 0.426
E28 [12], 4.1 nM | 0.755 | –
E28 [12], 12.3 nM | 0.838 | –
E28 [12], 37 nM | 1.05 | –
E28 [12], 111.1 nM | 2.06 | –
E28 [12], 333.3 nM | 3.8 | –
E28 [12], 1000 nM | 4.27 | –
E28 [12], 3000 nM | 4.73 | –
E31 [7], 4.1 nM | – | 0.817
E31 [7], 12.3 nM | – | 0.859
E31 [7], 37 nM | – | 0.71
E31 [7], 111.1 nM | – | 0.417
E31 [7], 333.3 nM | – | 0.132
E31 [7], 1000 nM | – | 0.1
E31 [7], 3000 nM | – | 0.114
E31 [14], 4.1 nM | 1.27 | –
E31 [14], 12.3 nM | 0.909 | –
E31 [14], 37 nM | 1.1 | –
E31 [14], 111.1 nM | 2.77 | –
E31 [14], 333.3 nM | 5.6 | –
E31 [14], 1000 nM | 5.55 | –
E31 [14], 3000 nM | 4.51 | –
E34 [4], 4.1 nM | – | 0.922
E34 [4], 12.3 nM | – | 0.961
E34 [4], 37 nM | – | 0.917
E34 [4], 111.1 nM | – | 0.664
E34 [4], 333.3 nM | – | 0.432
E34 [4], 1000 nM | – | 0.403
E34 [4], 3000 nM | – | 0.384
E34 [11], 4.1 nM | 0.931 | –
E34 [11], 12.3 nM | 0.785 | –
E34 [11], 37 nM | 1.36 | –
E34 [11], 111.1 nM | 2.23 | –
E34 [11], 333.3 nM | 3.56 | –
E34 [11], 1000 nM | 3.98 | –
E34 [11], 3000 nM | 6.31 | –
E57 [3], 4.1 nM | – | 1
E57 [3], 12.3 nM | – | 1.06
E57 [3], 37 nM | – | 0.876
E57 [3], 111.1 nM | – | 0.784
E57 [3], 333.3 nM | – | 0.148
E57 [3], 1000 nM | – | 0.0727
E57 [3], 3000 nM | – | 0.092
E57 [10], 4.1 nM | 1.09 | –
E57 [10], 12.3 nM | 0.846 | –
E57 [10], 37 nM | 1.77 | –
E57 [10], 111.1 nM | 2.71 | –
E57 [10], 333.3 nM | 5.36 | –
E57 [10], 1000 nM | 5.62 | –
E57 [10], 3000 nM | 4.64 | –
FT3469 [2], 4.1 nM | – | 0.984
FT3469 [2], 12.3 nM | – | 1.02
FT3469 [2], 37 nM | – | 0.772
FT3469 [2], 111.1 nM | – | 0.663
FT3469 [2], 333.3 nM | – | 0.648
FT3469 [2], 1000 nM | – | 0.56
FT3469 [2], 3000 nM | – | 0.566
FT3469 [9], 4.1 nM | 0.995 | –
FT3469 [9], 12.3 nM | 0.806 | –
FT3469 [9], 37 nM | 0.927 | –
FT3469 [9], 111.1 nM | 2.1 | –
FT3469 [9], 333.3 nM | 3.21 | –
FT3469 [9], 1000 nM | 3.43 | –
FT3469 [9], 3000 nM | 3.34 | –
